Source: US6737383B1, “Herbicidal oxadiazolidines” (priority 1999, dated 2004)

Key:
velvetleaf = assay: Test B pre/postemergence velvetleaf; type: in vivo, Abutilon theophrasti
Method in brief: (§1)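 Herbicidal effect was estimated by eye on a ten-point control scale after plants spent twelve to sixteen days in a greenhouse following soil or foliar treatment. Foliar sprays targeted plants at one to four leaves; all doses were formulated in a non-phytotoxic solvent with surfactant.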

cocklebur = assay: Test B pre/postemergence cocklebur; type: in vivo, Xanthium strumarium
Method in brief: as §1

bedstraw = assay: Test B pre/postemergence bedstraw; type: in vivo, Galium aparine
Method in brief: as §1

sugar beet = assay: Test B pre/postemergence sugar beet; type: in vivo, Beta vulgaris
Method in brief: as §1

soybean = assay: Test B pre/postemergence soybean; type: in vivo, Glycine max
Method in brief: as §1

pigweed = assay: Test B pre/postemergence pigweed; type: in vivo, Amaranthus retroflexus
Method in brief: as §1

blackgrass = assay: Test B pre/postemergence blackgrass; type: in vivo, Alopecurus myosuroides
Method in brief: as §1

rape = assay: Test B pre/postemergence rape; type: in vivo, Brassica napus
Method in brief: as §1

corn = assay: Test B pre/postemergence corn; type: in vivo, Zea mays
Method in brief: as §1

purple nutsedge = assay: Test B pre/postemergence purple nutsedge; type: in vivo, Cyperus rotundus; details: Postemergence
Method in brief: as §1

surinam grass = assay: Test B pre/postemergence surinam grass; type: in vivo, Brachiaria decumbens
Method in brief: as §1

rice = assay: Test B flood test rice; type: in vivo, Oryza sativa
Method in brief: (§2)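 Each value is a visual injury score relative to controls, with 10 meaning complete control and 0 no effect. Evaluation took place twelve to sixteen days after the 2-leaf-stage plants were treated and kept in the greenhouse.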

bamyardgrass = assay: Test B flood test barnyardgrass; type: in vivo, Echinochloa crus-galli
Method in brief: as §2

wild oat = assay: Test B pre/postemergence wild oat; type: in vivo, Avena fatua
Method in brief: as §1

morningglory = assay: Test B pre/postemergence morningglory; type: in vivo, Ipomoea hederacea
Method in brief: as §1

smallflower flatsedge = assay: Test B flood test smallflower flatsedge; type: in vivo, Cyperus difformis
Method in brief: as §2

[1] = Postemergence, Rate 250 g/ha, scale 0 to 10, 0 no effect, 10 complete control
[2] = Postemergence, Rate 1000 g/ha, scale 0 to 10 (0 no effect, 10 complete control)
[3] = Preemergence, Rate 125 g/ha, scale 0 to 10 (0 no effect, 10 complete control)
[4] = Preemergence, Rate 250 g/ha, scale of 0 to 10 where 0 is no effect and 10 is complete control
[5] = Preemergence, Rate 500 g/ha, scale 0 (no effect) to 10 (complete control)
[6] = Rate 125 g/ha, Postemergence, scale 0 to 10, 0 no effect, 10 complete control
[7] = Rate 1000 g/ha, Preemergence, scale 0 to 10 (0 no effect, 10 complete control)
[8] = Rate 500 g/ha, Postemergence, 0 to 10 scale (0 no effect, 10 complete control)
[9] = Rate 125 g/ha, Postemergence section (flood test species), scale 0 to 10, 0 no effect, 10 complete control
[10] = Rate 500 g/ha, Postemergence section of Table B, 0 to 10 scale (0 no effect, 10 complete control)
[11] = flood test, listed under Postemergence, Rate 250 g/ha, scale 0 to 10, 0 no effect, 10 complete control

## CCN(CC)C(=O)n1oc(=O)n(-c2ccc(OC)cc2)c1=O [Compound 1]
velvetleaf; [1]
  Velvetleaf plant response rating: 0
velvetleaf; [2]
  Velvetleaf plant response rating: 0
velvetleaf; [3]
  Plant response rating, Velvetleaf: 0
velvetleaf; [4]
  Plant response rating, Velvetleaf: 0
velvetleaf; [5]
  Velvetleaf plant response rating: 0
velvetleaf; [6]
  Velvetleaf plant response rating: 0
velvetleaf; [7]
  Plant response rating, Velvetleaf: 3
cocklebur; [1]
  Cocklebur plant response rating: 0
cocklebur; [2]
  Cocklebur plant response rating: 0
cocklebur; [3]
  Plant response rating, Cocklebur: 0
cocklebur; [4]
  Plant response rating, Cocklebur: 0
cocklebur; [5]
  Cocklebur plant response rating: 0
cocklebur; [6]
  Cocklebur plant response rating: 0
cocklebur; [8]
  Cocklebur plant response rating: 0
bedstraw; [1]
  Bedstraw plant response rating: 0
bedstraw; [2]
  Bedstraw plant response rating: 0
bedstraw; [3]
  Plant response rating, Bedstraw: 0
bedstraw; [4]
  Plant response rating, Bedstraw: 0
bedstraw; [5]
  Bedstraw plant response rating: 0
bedstraw; [6]
  Bedstraw plant response rating: 0
bedstraw; [8]
  Bedstraw plant response rating: 0
bedstraw; [7]
  Plant response rating, Bedstraw: 0
Sugar beet; [1]
  Sugarbeets plant response rating: 0
Sugar beet; [2]
  Sugarbeets plant response rating: 5
Sugar beet; [3]
  Plant response rating, Sugarbeets: 0
Sugar beet; [4]
  Plant response rating, Sugarbeets: 0
Sugar beet; [5]
  Sugarbeets plant response rating: 0
Sugar beet; [6]
  Sugarbeets plant response rating: 0
Sugar beet; [7]
  Plant response rating, Sugarbeets: 0
soybean; [1]
  Soybean plant response rating: 0
soybean; [2]
  Soybean plant response rating: 2
soybean; [3]
  Plant response rating, Soybean: 0
soybean; [4]
  Plant response rating, Soybean: 0
soybean; [5]
  Soybean plant response rating: 0
soybean; [6]
  Soybean plant response rating: 0
soybean; [7]
  Plant response rating, Soybean: 0
pigweed; [1]
  Redroot pigweed plant response rating: 4
pigweed; [2]
  Redroot pigweed plant response rating: 9
pigweed; [3]
  Plant response rating, Redroot pigweed: 0
pigweed; [4]
  Plant response rating, Redroot pigweed: 0
pigweed; [5]
  Redroot pigweed plant response rating: 2
pigweed; [6]
  Redroot pigweed plant response rating: 2
pigweed; [8]
  Redroot pigweed plant response rating: 8
pigweed; [7]
  Plant response rating, Redroot pigweed: 2
blackgrass; [1]
  Blackgrass plant response rating: 0
blackgrass; [2]
  Blackgrass plant response rating: 8
blackgrass; [3]
  Plant response rating, Blackgrass: 0
blackgrass; [4]
  Plant response rating, Blackgrass: 0
blackgrass; [5]
  Blackgrass plant response rating: 2
blackgrass; [6]
  Blackgrass plant response rating: 0
blackgrass; [8]
  Blackgrass plant response rating: 2
blackgrass; [7]
  Plant response rating, Blackgrass: 4
rape; [1]
  Rape plant response rating: 0
rape; [2]
  Rape plant response rating: 4
rape; [3]
  Plant response rating, Rape: 0
rape; [4]
  Plant response rating, Rape: 0
rape; [5]
  Rape plant response rating: 0
rape; [6]
  Rape plant response rating: 0
rape; [8]
  Rape plant response rating: 2
rape; [7]
  Plant response rating, Rape: 0
corn; [1]
  Corn plant response rating: 0
corn; [2]
  Corn plant response rating: 0
corn; [3]
  Plant response rating, Corn: 0
corn; [4]
  Plant response rating, Corn: 0
corn; [5]
  Corn plant response rating: 5
corn; [6]
  Corn plant response rating: 0
corn; [8]
  Corn plant response rating: 0
corn; [7]
  Plant response rating, Corn: 7
Purple nutsedge; Rate 250 g/ha, scale 0 to 10, 0 no effect, 10 complete control
  Nutsedge plant response rating: 0
Purple nutsedge; Rate 1000 g/ha, scale 0 to 10 (0 no effect, 10 complete control)
  Nutsedge plant response rating: 0
Purple nutsedge; Rate 125 g/ha, scale 0 to 10, 0 no effect, 10 complete control
  Nutsedge plant response rating: 0
Purple nutsedge; Rate 500 g/ha, 0 to 10 scale (0 no effect, 10 complete control)
  Nutsedge plant response rating: 0
Surinam grass; [1]
  B. signalgrass plant response rating: 7
Surinam grass; [2]
  B. signalgrass plant response rating: 6
Surinam grass; [3]
  Plant response rating, B. signalgrass: 0
Surinam grass; [4]
  Plant response rating, B. signalgrass: 0
Surinam grass; [5]
  B. signalgrass plant response rating: 6
Surinam grass; [6]
  B. signalgrass plant response rating: 0
Surinam grass; [8]
  B. signalgrass plant response rating: 7
Surinam grass; [7]
  Plant response rating, B. signalgrass: 8
rice; [2]
  Rice plant response rating: 0
rice; [9]
  Rice plant response rating: 0
rice; [10]
  Rice plant response rating: 0
rice; [11]
  Rice plant response rating: 0
bamyardgrass; [2]
  Barnyardgrass plant response rating: 0
bamyardgrass; [9]
  Barnyardgrass plant response rating: 0
bamyardgrass; [10]
  Barnyardgrass plant response rating: 0
bamyardgrass; [11]
  Barnyardgrass plant response rating: 0
Wild oat; [1]
  Wild oats plant response rating: 0
Wild oat; [2]
  Wild oats plant response rating: 0
Wild oat; [3]
  Plant response rating, Wild oats: 0
Wild oat; [4]
  Plant response rating, Wild oats: 0
Wild oat; [5]
  Wild oats plant response rating: 0
Wild oat; [6]
  Wild oats plant response rating: 0
Wild oat; [7]
  Plant response rating, Wild oats: 2
morningglory; [1]
  Morningglory plant response rating: 0
morningglory; [2]
  Morningglory plant response rating: 0
morningglory; [3]
  Plant response rating, Morningglory: 0
morningglory; [4]
  Plant response rating, Morningglory: 0
morningglory; [5]
  Morningglory plant response rating: 0
morningglory; [6]
  Morningglory plant response rating: 0
morningglory; [8]
  Morningglory plant response rating: 0
morningglory; [7]
  Plant response rating, Morningglory: 0
Smallflower flatsedge; [2]
  S. Flatsedge plant response rating: 0
Smallflower flatsedge; [9]
  S. Flatsedge plant response rating: 0
Smallflower flatsedge; [11]
  S. Flatsedge plant response rating: 0
